According to patent publication US20250270170A1, “2,3-DIMETHOXY-5-METHYL-1,4-BENZOQUINONE ALKYL ALCOHOL DERIVATIVE AND USE THEREOF” (BEIJING ANJIANXI BIO-MEDICAL TECHNOLOGY CO., LTD., priority 2021, published 2025):
Marks after values point to notes of the source that are not given here.

Tests used:
[1] = Example 3: body weight of NCI-N87 tumor-bearing nude mice; type: in vivo, BALB/c nude mice
Protocol: The NCI-N87 cells in the logarithmic growth phase were collected, counted and resuspended in a serum-free RPMI-1640 medium, and the cell concentration was adjusted to 5×10^7 cells/mL. The cells were pipetted with a pipette to disperse them evenly, and the cells were put into a 50-mL centrifuge tube, which was placed in an ice box. A 1-mL syringe was used to draw the cell suspension, which was injected subcutaneously into the axilla of the front right limb of a nude mouse. Each animal was inoculated with 100 μL (5×10^6 cells/mouse) to establish an NCI-N87 transplanted tumor model in nude mice. After the inoculation, the animal status and tumor growth were regularly observed, and the tumor diameter was measured using an electronic vernier caliper. The data were input into an Excel spreadsheet to calculate the tumor volume. When the tumor volume reached 100 to 300 mm^3, 72 animals in good health and with similar tumor volumes were selected and divided into 9 groups (n=8) using randomized block method. The day of grouping was regarded as the first day of the assay (D1). After the start of the assay, the tumor diameter was measured twice a week, the tumor volume was calculated, and the animal body weight was also weighed and recorded. [table] The calculation formula of animal weight loss rate is: wherein BWt represents the animal body weight measured each time during the administration period; BWinitial represents the animal body weight when being grouped for administration. The assay data were calculated and processed statistically using Microsoft Office Excel 2007 software. Unless otherwise specified, the data were expressed as mean±standard error (Mean±SE), and t-test was used for comparison between two groups.

[2] = tested on: human gastric cancer NCI-N87 transplanted tumor; assay: Example 7: tumor growth in NCI-N87 transplanted tumor model, alone and combined with DDP; type: in vivo, nude mice; details: for Mean tumor volume / tumor growth inhibition rate (TGI): R01 16 mg/kg PO QD×32
[3] = Example 7: serum UREA content; type: in vivo, nude mice; details: mouse, in vivo, po, 16 mg/kg
[4] = Example 9: serum urea nitrogen (BUN) at the end of the assay; type: in vivo, nude mice; details: mouse, in vivo
Protocol: On the last day of the assay, CO2 inhalation anesthesia was used on the animals 1 hour after the administration (R01). Blood was collected through the heart, and a part of the whole blood was added with EDTA-K2 for anticoagulation. The plasma was separated by centrifugation at 4° C. and 1500 g for 10 minutes. The plasma was collected, and stored in a −40° C. to −20° C. freezer (if necessary, it can be used for the determination of the plasma drug concentration). No anticoagulant was added to the other part of the whole blood, and the serum was separated by centrifugation after the blood coagulated, which was used for the detection of blood urea nitrogen. After the blood collection, the tumor tissue was collected, weighed and photographed. Then, the tumor was divided into two parts, quickly cryopreserved by liquid nitrogen, and transferred to a −90° C. to −60° C. freezer for storage. Bilateral kidneys were collected and fixed in 10% formalin.

[5] = tested on: human colorectal cancer HT29 transplanted tumor; assay: Example 10: tumor growth in HT-29 transplanted tumor model; type: in vivo, nude mice; details: for Mean tumor volume ± SE / tumor growth inhibition rate: HT-29 model, DDP 5 mg/kg i.p. QW × 3, R01 18 mg/kg i.g. BID × 28
Protocol: The human colorectal cancer cell lines HT-29 were obtained from the Cell Bank of the Type Culture Collection Committee of Chinese Academy of Sciences (CAS, cryopreserved in liquid nitrogen in this assay).
HT-29 cells were routinely cultured in a McCoy […] containing 10% fetal bovine serum under culture conditions of 37° C. and 5% CO2. The cells were digested with 0.25% trypsin, and passaged according to the cell growth conditions with a passaging ratio of 1:3 to 1:4.
On D1 of the assay, the HT-29 cells in the logarithmic growth phase were collected, counted and resuspended in serum-free McCoy, and the cell concentration was adjusted to 4×10^7 cells/mL. The cells were pipetted with a pipette to disperse them evenly, and the cells were put into a 50-mL centrifuge tube, which was placed in an ice box. A 1-mL syringe was used to draw the cell suspension, which was injected subcutaneously into the axilla of the front right limb of a nude mouse. Each animal was inoculated with 100 μL (4×10^6 cells/mouse) to establish a HT-29 transplanted tumor model in nude mice. After the inoculation, the animal status and tumor growth were regularly observed. On D12, the tumor diameter was measured using an electronic vernier caliper. The data were input into an Excel spreadsheet to calculate the tumor volume. Tumor-bearing mice in good health and with similar tumor volumes (103 to 179 mm^3) were selected and divided into groups using randomized block method. After the start of the assay, the tumor diameter was measured regularly, the tumor volume was calculated, and the animal body weight was also weighed and recorded.

Structure (SMILES): COC1=C(OC)C(=O)C(CCCCCCCCCCOC(=O)Cc2c(C)n(C(=O)c3ccc(Cl)cc3)c3ccc(OC)cc23)=C(C)C1=O [compound of formula (I)]
- Mean animal body weight ([1]; D13, 2 mg/kg i.g. BID×28): 18.3 ± 0.4 g
- Mean animal body weight ([1]; D13, 6 mg/kg i.g. BID×28): 17.6 ± 0.3 g
- Mean animal body weight ([1]; D13, 18 mg/kg i.g. BID×28): 17.9 ± 0.5 g
- Mean animal body weight ([1]; D16, 2 mg/kg i.g. BID×28): 18.2 ± 0.5 g
- body weight loss rate ([1]; D16, 2 mg/kg i.g. BID×28): (0.41%)
- Mean animal body weight ([1]; D16, 6 mg/kg i.g. BID×28): 17.6 ± 0.3 g
- body weight loss rate ([1]; D16, 6 mg/kg i.g. BID×28): (0.28%)
- Mean animal body weight ([1]; D16, 18 mg/kg i.g. BID×28): 17.7 ± 0.4 g
- body weight loss rate ([1]; D16, 18 mg/kg i.g. BID×28): (1.0%)
- Mean animal body weight ([1]; D20, 2 mg/kg i.g. BID×28): 18.2 ± 0.4 g
- body weight loss rate ([1]; D20, 2 mg/kg i.g. BID×28): (0.27%)
- Mean animal body weight ([1]; D20, 6 mg/kg i.g. BID×28): 17.5 ± 0.4 g
- body weight loss rate ([1]; D20, 6 mg/kg i.g. BID×28): (0.50%)
- Mean animal body weight ([1]; D20, 18 mg/kg i.g. BID×28): 17.8 ± 0.3 g
- body weight loss rate ([1]; D20, 18 mg/kg i.g. BID×28): (0.56%)
- Mean animal body weight ([1]; D23, 2 mg/kg i.g. BID×28): 18.5 ± 0.5 g
- body weight loss rate ([1]; D23, 2 mg/kg i.g. BID×28): (−1.0%)
- Mean animal body weight ([1]; D23, 6 mg/kg i.g. BID×28): 18.1 ± 0.5 g
- body weight loss rate ([1]; D23, 6 mg/kg i.g. BID×28): (−2.7%)
- Mean animal body weight ([1]; D23, 18 mg/kg i.g. BID×28): 18.0 ± 0.4 g
- body weight loss rate ([1]; D23, 18 mg/kg i.g. BID×28): (−0.42%)
- Mean animal body weight ([1]; D27, 2 mg/kg i.g. BID×28): 18.7 ± 0.5 g
- body weight loss rate ([1]; D27, 2 mg/kg i.g. BID×28): (−2.5%)
- Mean animal body weight ([1]; D27, 6 mg/kg i.g. BID×28): 18.3 ± 0.5 g
- body weight loss rate ([1]; D27, 6 mg/kg i.g. BID×28): (−3.7%)
- Mean animal body weight ([1]; D27, 18 mg/kg i.g. BID×28): 18.1 ± 0.3 g
- body weight loss rate ([1]; D27, 18 mg/kg i.g. BID×28): (−1.0%)
- Mean animal body weight ([1]; D30, 2 mg/kg i.g. BID×28): 18.9 ± 0.4 g
- body weight loss rate ([1]; D30, 2 mg/kg i.g. BID×28): (−3.4%)
- Mean animal body weight ([1]; D30, 6 mg/kg i.g. BID×28): 18.3 ± 0.4 g
- body weight loss rate ([1]; D30, 6 mg/kg i.g. BID×28): (−4.0%)
- Mean animal body weight ([1]; D30, 18 mg/kg i.g. BID×28): 18.4 ± 0.4 g
- body weight loss rate ([1]; D30, 18 mg/kg i.g. BID×28): (−2.7%)
- Mean animal body weight ([1]; D34, 2 mg/kg i.g. BID×28): 19.3 ± 0.5 g
- body weight loss rate ([1]; D34, 2 mg/kg i.g. BID×28): (−5.8%)
- Mean animal body weight ([1]; D34, 6 mg/kg i.g. BID×28): 18.5 ± 0.4 g
- body weight loss rate ([1]; D34, 6 mg/kg i.g. BID×28): (−5.1%)
- Mean animal body weight ([1]; D34, 18 mg/kg i.g. BID×28): 18.7 ± 0.4 g
- body weight loss rate ([1]; D34, 18 mg/kg i.g. BID×28): (−4.3%)
- Mean animal body weight ([1]; D37, 2 mg/kg i.g. BID×28): 19.5 ± 0.5 g
- body weight loss rate ([1]; D37, 2 mg/kg i.g. BID×28): (−6.5%)
- Mean animal body weight ([1]; D37, 6 mg/kg i.g. BID×28): 18.6 ± 0.4 g
- body weight loss rate ([1]; D37, 6 mg/kg i.g. BID×28): (−5.8%)
- Mean animal body weight ([1]; D37, 18 mg/kg i.g. BID×28): 18.8 ± 0.4 g
- body weight loss rate ([1]; D37, 18 mg/kg i.g. BID×28): (−4.8%)
- Mean animal body weight ([1]; D44, 2 mg/kg i.g. BID×28): 19.2 ± 0.6 g
- body weight loss rate ([1]; D44, 2 mg/kg i.g. BID×28): (−5.2%)
- Mean animal body weight ([1]; D44, 6 mg/kg i.g. BID×28): 19.0 ± 0.5 g
- body weight loss rate ([1]; D44, 6 mg/kg i.g. BID×28): (−8.0%)
- Mean animal body weight ([1]; D44, 18 mg/kg i.g. BID×28): 19.1 ± 0.4 g
- body weight loss rate ([1]; D44, 18 mg/kg i.g. BID×28): (−6.9%)
- effect on body weight compared with blank control group ([1]; NCI-N87 tumor-bearing nude mice, summary of Table 6): no significant effect
- Mean tumor volume ([2]; D12): 155 ± 4 mm^3
- Mean tumor volume ([2]; D16): 200 ± 6** mm^3
- tumor growth inhibition rate (TGI) ([2]; D16): 29%
- Mean tumor volume ([2]; D19): 263 ± 14** mm^3
- tumor growth inhibition rate (TGI) ([2]; D19): 27%
- Mean tumor volume ([2]; D23): 336 ± 18** mm^3
- tumor growth inhibition rate (TGI) ([2]; D23): 30%
- Mean tumor volume ([2]; D26): 421 ± 26** mm^3
- tumor growth inhibition rate (TGI) ([2]; D26): 33%
- Mean tumor volume ([2]; D30): 509 ± 46** mm^3
- tumor growth inhibition rate (TGI) ([2]; D30): 43%
- Mean tumor volume ([2]; D33): 577 ± 52** mm^3
- tumor growth inhibition rate (TGI) ([2]; D33): 45%
- Mean tumor volume ([2]; D37): 681 ± 63** mm^3
- tumor growth inhibition rate (TGI) ([2]; D37): 46%
- Mean tumor volume ([2]; D40): 758 ± 74** mm^3
- tumor growth inhibition rate (TGI) ([2]; D40): 47%
- Mean tumor volume ([2]; D44): 871 ± 94** mm^3
- tumor growth inhibition rate (TGI) ([2]; D44): 45%
- effect on growth of the NCI-N87 transplanted tumor (summary) ([2]; R01 alone 16 mg/kg QD, combinations: R01 3, 6, 16 mg/kg (QD) with DDP): significant inhibitory effect
- Serum UREA content, Mean [3]: 7.83 mmol serum^−1
- BUN (mmol/L) Mean ± SE ([4]; 18 mg/kg): 22.51 ± 1.24 mmol/L
- BUN (mmol/L) Mean ± SE ([4]; 36 mg/kg): 22.69 ± 1.17 mmol/L
- Mean tumor volume ± SE ([5]; D 12 (grouping)): 134 ± 9 mm^3
- Mean tumor volume ± SE ([5]; D 15): 178 ± 7 mm^3
- tumor growth inhibition rate ([5]; D 15): (40%)
- Mean tumor volume ± SE ([5]; D 19): 280 ± 9** mm^3
- tumor growth inhibition rate ([5]; D 19): (42%)
- Mean tumor volume ± SE ([5]; D 22): 393 ± 19** mm^3
- tumor growth inhibition rate ([5]; D 22): (34%)
- Mean tumor volume ± SE ([5]; D 26): 532 ± 31** mm^3
- tumor growth inhibition rate ([5]; D 26): (31%)
- Mean tumor volume ± SE ([5]; D 29): 631 ± 40** mm^3
- tumor growth inhibition rate ([5]; D 29): (38%)
- Mean tumor volume ± SE ([5]; D 33): 832 ± 59** mm^3
- tumor growth inhibition rate ([5]; D 33): (36%)
- Mean tumor volume ± SE ([5]; D 36): 903 ± 73** mm^3
- tumor growth inhibition rate ([5]; D 36): (37%)
- Mean tumor volume ± SE ([5]; D 40): 1070 ± 94** mm^3
- tumor growth inhibition rate ([5]; D 40): (33%)
- anti-tumor effect in combination with cisplatin (summary) ([5]; HT-29 transplanted tumor model in nude mice): synergistic anti-tumor effect
